Laboratory results from patent publication US20180057462A1, “Substituted 2-difluoromethyl-nicotin(thio)carboxanilide derivatives and their use as fungicides” (BAYER CROPSCIENCE AKTIENGESELLSCHAFT, priority 2015, published 2018).

Assay: LogP by HPLC on reversed phase columns (EEC directive 79/831 Annex V.A8), method [a]
Type: physicochemical
Settings: LC-UV, acidic range, 0.1% formic acid in water and acetonitrile as eluent (linear gradient 10% to 95% acetonitrile)

| SMILES | LogP[a] | chromatographic logP (reversed phase HPLC column) |
| --- | --- | --- |
| CC(Oc1cccc(NC(=O)c2cccnc2C(F)F)c1C(F)(F)F)c1ccccc1 (centres unmarked) [Example 101] | 3.42 | – |
| Cc1cnc(C(F)F)c(C(=O)Nc2cccc(OC(C)c3ccccc3)c2C(F)(F)F)c1 (centres unmarked) [Example 102] | 3.69 | – |
| CC(Oc1cccc(NC(=O)c2ccc(Cl)nc2C(F)F)c1C(F)(F)F)c1ccccc1 (centres unmarked) [Example 103] | 4.03 | – |
| Cc1c(NC(=O)c2cccnc2C(F)F)cccc1N1CCCC1 [Example 104] | 0.79 | – |
| Cc1c(NC(=O)c2cccnc2C(F)F)cccc1S(=O)(=O)C1CCCC1 [Example 105] | 2.21 | – |
| CCC(CC)Nc1cccc(NC(=O)c2cccnc2C(F)F)c1C [Example 106] | 2.86 | – |
| Cc1c(NC(=O)c2cccnc2C(F)F)cccc1NC1CCCC1 [Example 107] | 2.17 | – |
| Cc1c(NC(=O)c2cccnc2C(F)F)cccc1N(C)C [Example 108] | 0.45 | – |
| Cc1c(NC(=O)c2cccnc2C(F)F)cccc1N(C)C1CCCC1 [Example 109] | 1.39 | – |
| Cc1c(NC(=O)c2cccnc2C(F)F)cccc1-c1cncc(C(F)(F)F)c1 [Example 110, 2-(difluoromethyl)-N-{2-methyl-3-[5-(trifluoromethyl)pyridin-3-yl]phenyl}nicotinamide] | – | 2.6 |
| Cc1ccc(-c2cccc(NC(=O)c3cccnc3C(F)F)c2C)s1 [Example 111] | 3.19 | – |
| Cc1nc(C)c(-c2cccc(NC(=O)c3cccnc3C(F)F)c2C)s1 [Example 112] | 1.98 | – |
| Cc1c(NC(=O)c2cccnc2C(F)F)cccc1-c1cnn(C(C)C)c1 [Example 113] | 2.17 | – |
| Cc1c(NC(=O)c2cccnc2C(F)F)cccc1-c1csc(C(C)C)n1 [Example 114] | 2.94 | – |
| Cc1c(NC(=O)c2cccnc2C(F)F)cccc1OC(C)c1ccc(Cl)cc1Cl (centres unmarked) [Example 115] | 4.41 | – |
| Cc1c(NC(=O)c2cccnc2C(F)F)cccc1C1CCCCC1(C)C (centres unmarked) [Example 116] | 4.31 | – |
| Cc1c(NC(=O)c2cccnc2C(F)F)cccc1OC(C)(C)C(C)C [Example 117] | 3.61 | – |
| CCOc1cccc(NC(=O)c2cccnc2C(F)F)c1C [Example 118] | 2.34 | – |
| Cc1c(NC(=O)c2cccnc2C(F)F)cccc1OCC(F)(F)F [Example 119] | 2.55 | – |
| Cc1c(NC(=O)c2cccnc2C(F)F)cccc1OCCC(F)(F)F [Example 120] | 2.68 | – |
| Cc1c(NC(=O)c2cccnc2C(F)F)cccc1C1CCCC1 [Example 121] | 3.25 | – |
| Cc1c(NC(=O)c2cccnc2C(F)F)cccc1C1CC1 [Example 122] | 2.43 | – |
| Cc1c(NC(=O)c2c(C(F)F)ccnc2C(F)F)cccc1OC1CCCC1 [Example 123] | 3.70 | – |
